Results reported in ChEMBL document CHEMBL5625206, “Design, synthesis, and evaluation of novel pleuromutilin aryl acrylate derivatives as promising broad-spectrum antibiotics especially for combatting multi-drug resistant gram-negative bacteria” (Eur J Med Chem, 2023).
Active and inactive are the calls of the source. No cut-off for these calls is given here.

Legend:
[1] = Toxicity in fasted male Sprague-Dawley rat assessed as relative spleen weight ratio at 224 mg/kg, IG measured for 14 days (reference value: 0.246 +/- 0.037); format: organism-based; settings: in vivo, po, 336 h, time 14 day
[2] = Toxicity in fasted female Sprague-Dawley rat assessed as relative heart weight ratio at 331 mg/kg, IG measured for 14 days (reference value: 0.429 +/- 0.016); format: organism-based; settings: in vivo, po, 336 h, time 14 day
[3] = Cmax in fasted Sprague-Dawley rat at 1 mg/kg, iv by LC-MS/MS analysis; format: ADME, organism-based; settings: in vivo
[4] = Toxicity in fasted female Sprague-Dawley rat assessed as animal growth rate at 224 mg/kg, IG measured for 14 days (reference value: 29.85 +/- 4.97 g); format: organism-based; settings: in vivo, po, 336 h, time 14 day
[5] = Toxicity in fasted Sprague-Dawley rat assessed as mortality rate at 100 mg/kg, IG measured for 14 days; format: organism-based; settings: in vivo, po, time 14 day
Escherichia coli [6] = test: Inhibition of biofilm formation of Escherichia coli ATCC 25922 incubated for 24 hrs by crystal violet staining based analysis; format: functional, organism-based
Staphylococcus aureus [7] = test: Inhibition of biofilm formation of methicillin-resistant Staphylococcus aureus ATCC 33591 at MIC incubated for 24 hrs by crystal violet staining based analysis relative to control; format: functional
[8] = Toxicity in neutropenic Kunming mouse model infected with methicillin-resistant Staphylococcus aureus ATCC 33591 assessed as survival rate at 10 mg/kg, ip measured after 7 days relative to control; format: organism-based; settings: in vivo, 168 h, time 7 day
Staphylococcus aureus [9] = test: Antibacterial activity against methicillin-resistant Staphylococcus aureus ATCC 33591 infected in neutropenic Kunming mouse model assessed as reduction in infection-induced inflammatory cell inflammation in lung at 10 mg/kg, ip measured after 7 days; format: functional, organism-based; settings: time 7.0 day
Escherichia coli [10] = test: Bactericidal activity against Escherichia coli ATCC 25922 at 4 to 8 times MIC incubated for 8 to 12 hrs by time kill assay relative to control; format: functional; settings: time 8-12 hrs
Staphylococcus aureus [11] = test: Induction of extracellular electrical conductivity in methicillin-resistant Staphylococcus aureus ATCC 33591 at MIC incubated for 8 hrs relative to control
Staphylococcus aureus [12] = test: Induction of cell damage in methicillin-resistant Staphylococcus aureus ATCC 33591 assessed as fold increase in extracellular ATP concentration at MIC incubated for 30 mins by fluorescence based analysis relative to control; format: functional; settings: 0.5 h
[13] = MRT in fasted Sprague-Dawley rat at 1 mg/kg, iv by LC-MS/MS analysis; format: ADME, organism-based; settings: in vivo
[14] = Toxicity in fasted female Sprague-Dawley rat assessed as relative lung weight ratio at 100 mg/kg, IG measured for 14 days (reference value: 0.534 +/- 0025); format: organism-based; settings: in vivo, po, 336 h, time 14 day
[15] = Toxicity in fasted female Sprague-Dawley rat assessed as relative liver weight ratio at 100 mg/kg, IG measured for 14 days (reference value: 3.199 +/- 0.062); format: organism-based; settings: in vivo, po, 336 h, time 14 day
Staphylococcus aureus [16] = test: Antibacterial activity against methicillin-resistant Staphylococcus aureus ATCC 33591 infected in neutropenic Kunming mouse model assessed as reduction in infection-induced inflammatory cell infiltration in liver at 20 mg/kg, ip measured after 7 days; format: functional, organism-based; settings: time 7.0 day
[17] = Toxicity in fasted male Sprague-Dawley rat assessed as relative liver weight ratio at 100 mg/kg, IG measured for 14 days (reference value: 3.616 +/- 0.286); format: organism-based; settings: in vivo, po, 336 h, time 14 day
[18] = Toxicity in fasted male Sprague-Dawley rat assessed as body weight at 148 mg/kg, IG measured after 7 days (reference value: 260.5 +/- 12.7 g); format: organism-based; settings: in vivo, po, 168 h, time 7 day
Staphylococcus aureus [19] = test: Antibacterial activity against methicillin-resistant Staphylococcus aureus ATCC 33591 infected in neutropenic Kunming mouse model assessed as restoration of infection- induced change in cell morphology in liver at 20 mg/kg, ip measured after 7 days; format: functional, organism-based; settings: time 7.0 day
[20] = Tmax in fasted Sprague-Dawley rat at 1 mg/kg, iv by LC-MS/MS analysis; format: ADME, organism-based; settings: in vivo
[21] = Toxicity in fasted male Sprague-Dawley rat assessed as body weight at 224 mg/kg, IG measured after 14 days (reference value: 311.2 +/- 13.6 g); format: organism-based; settings: in vivo, po, 336 h, time 14 day
[22] = Toxicity in fasted female Sprague-Dawley rat assessed as relative liver weight ratio at 500 mg/kg, IG measured for 14 days (reference value: 3.199 +/- 0.062); format: organism-based; settings: in vivo, po, 336 h, time 14 day
Staphylococcus aureus [23] = test: Induction of cell damage in methicillin-resistant Staphylococcus aureus ATCC 33591 assessed as decrease in intracellular ATP concentration at 2 times MIC incubated for 30 mins by fluorescence based analysis relative to control; format: functional; set-up: scale not given: the % may be the effect or the level left; settings: 0.5 h
[24] = Toxicity in fasted male Sprague-Dawley rat assessed as body weight at 224 mg/kg, IG measured on same day (reference value: 212.7 +/- 13.2 g); format: organism-based; settings: in vivo, po
[25] = Toxicity in fasted male Sprague-Dawley rat assessed as body weight at 224 mg/kg, IG measured after 7 days (reference value: 260.5 +/- 12.7 g); format: organism-based; settings: in vivo, po, 168 h, time 7 day
[26] = Toxicity in fasted male Sprague-Dawley rat assessed as relative spleen weight ratio at 148 mg/kg, IG measured for 14 days (reference value: 0.246 +/- 0.037); format: organism-based; settings: in vivo, po, 336 h, time 14 day
Staphylococcus aureus [27] = test: Bactericidal activity against methicillin-resistant Staphylococcus aureus ATCC 33591 at MIC incubated for 24 hrs by time kill assay relative to control; format: functional
[28] = Toxicity in fasted male Sprague-Dawley rat assessed as relative liver weight ratio at 500 mg/kg, IG measured for 14 days (reference value: 3.616 +/- 0.286); format: organism-based; settings: in vivo, po, 336 h, time 14 day
[29] = Toxicity in fasted female Sprague-Dawley rat assessed as relative liver weight ratio at 331 mg/kg, IG measured for 14 days (reference value: 3.199 +/- 0.062); format: organism-based; settings: in vivo, po, 336 h, time 14 day
[30] = Toxicity in fasted female Sprague-Dawley rat assessed as animal growth rate at 500 mg/kg, IG measured for 14 days (reference value: 29.85 +/- 4.97 g); format: organism-based; settings: in vivo, po, 336 h, time 14 day
Staphylococcus aureus [31] = test: Disruption of cell membrane integrity in methicillin-resistant Staphylococcus aureus ATCC 33591 assessed as wrinkled cell surface at MIC incubated for 4 hrs by FESEM analysis; format: functional, organism-based
[32] = Toxicity in fasted male Sprague-Dawley rat assessed as relative heart weight ratio at 224 mg/kg, IG measured for 14 days (reference value: 0.396 +/- 0.043); format: organism-based; settings: in vivo, po, 336 h, time 14 day
Staphylococcus aureus [33] = test: Antibacterial activity against methicillin-resistant Staphylococcus aureus ATCC 33591 infected in neutropenic Kunming mouse model assessed as reduction in infection-induced kidney damage at 20 mg/kg, ip measured after 7 days; format: functional, organism-based; settings: time 7.0 day
[34] = Toxicity in fasted male Sprague-Dawley rat assessed as relative kidney weight ratio at 224 mg/kg, IG measured for 14 days (reference value: 0.820 +/- 0.072); format: organism-based; settings: in vivo, po, 336 h, time 14 day
Staphylococcus aureus [35] = test: Antibacterial activity against methicillin-resistant Staphylococcus aureus ATCC 33591 infected in neutropenic Kunming mouse model assessed as reduction in infection-induced inflammatory cell inflammation in kidney at 10 mg/kg, ip measured after 7 days; format: functional, organism-based; settings: time 7.0 day
[36] = Toxicity in fasted male Sprague-Dawley rat assessed as body weight at 148 mg/kg, IG measured after 14 days (reference value: 311.2 +/- 13.6 g); format: organism-based; settings: in vivo, po, 336 h, time 14 day

**Q.** With `C=C[C@]1(C)C[C@@H](OC(=O)COC(=O)/C=C/c2ccc(N(C)C)cc2)[C@]2(C)[C@H](C)CC[C@]3(CCC(=O)[C@H]32)[C@@H](C)[C@@H]1O` as the compound, how does the Ratio [1] read?
**A.** The Ratio was 0.229.

**Q.** And the Ratio [2]?
**A.** Its Ratio is 0.471.

**Q.** And the Cmax [3]?
**A.** The Cmax was 9570 ng/mL.

**Q.** What about the Activity [4] of the same compound?
**A.** Its Activity is 28.96%.

**Q.** And the mortality at 336 h [5]?
**A.** The mortality at 336 h was 0%.

**Q.** And the inhibition (Escherichia coli [6])?
**A.** Its inhibition is “Dose-Dependent Effect”.

**Q.** And the “inhibition (INH)” value (Staphylococcus aureus [7])?
**A.** The value was 56.51%.

**Q.** And the Survival [8]?
**A.** Its Survival is 70%.

**Q.** What about the Activity (Staphylococcus aureus [9]) of the same compound?
**A.** Its Activity is “inactive”.

**Q.** And the Activity (Escherichia coli [10])?
**A.** The Activity was 100%.

**Q.** And the Activity (Staphylococcus aureus [11])?
**A.** The Activity was 14.9%.

**Q.** And the “fold change (FC)” value (Staphylococcus aureus [12])?
**A.** Its value is 4.01.

**Q.** And the MRT [13]?
**A.** The MRT was 42.6 min.

**Q.** And the Ratio [14]?
**A.** The Ratio was 0.522.

**Q.** What about the Ratio [15] of the same compound?
**A.** Its Ratio is 3.195.

**Q.** And the Activity (Staphylococcus aureus [16])?
**A.** Its Activity is “Active”.

**Q.** And the Ratio [17]?
**A.** Its Ratio is 3.623.

**Q.** And the Activity [18]?
**A.** The Activity was 256.8 g.

**Q.** What about the Activity (Staphylococcus aureus [19]) of the same compound?
**A.** The Activity was “Active”.

**Q.** And the Tmax [20]?
**A.** The Tmax was 4.98 min.

**Q.** And the Activity [21]?
**A.** Its Activity is 304.9 g.

**Q.** What about the Ratio [22] of the same compound?
**A.** The Ratio was 3.203.

**Q.** And the Activity (Staphylococcus aureus [23])?
**A.** Its Activity is 86.52%.

**Q.** And the Activity [24]?
**A.** The Activity was 210.1 g.

**Q.** What about the Activity [25] of the same compound?
**A.** The Activity was 257.1 g.

**Q.** And the Ratio [26]?
**A.** The Ratio was 0.227.

**Q.** And the Activity (Staphylococcus aureus [27])?
**A.** The Activity was 48.55%.

**Q.** What about the Ratio [28] of the same compound?
**A.** The Ratio was 3.551.

**Q.** And the Ratio [29]?
**A.** The Ratio was 3.171.

**Q.** And the Activity [30]?
**A.** The Activity was 30.22%.

**Q.** What about the Activity (Staphylococcus aureus [31]) of the same compound?
**A.** Its Activity is “Active”.

**Q.** What about the Ratio [32] of the same compound?
**A.** The Ratio was 0.38.

**Q.** What about the Activity (Staphylococcus aureus [33]) of the same compound?
**A.** Its Activity is “Active”.

**Q.** What about the Ratio [34] of the same compound?
**A.** Its Ratio is 0.808.

**Q.** And the Activity (Staphylococcus aureus [35])?
**A.** The Activity was “inactive”.

**Q.** And the Activity [36]?
**A.** The Activity was 303.6 g.
